Experimental data from publication PMC5695812, “Novel chloroacetamido compound CWR-J02 is an anti-inflammatory glutaredoxin-1 inhibitor” (PLoS ONE, 2017).

Tests used:
glutaredoxin-1 (Grx1) [1] = molecular target: T1, glutaredoxin-1 (Grx1) (Mus musculus, UniProt Q9QUH0); test: Grx1 activity in lysates of treated BV2 murine microglia; click-biotin/streptavidin pull-down with MS and western blot; type: cell-based
T1 construct: gene Glrx
T1 sequence (Q9QUH0 2-107): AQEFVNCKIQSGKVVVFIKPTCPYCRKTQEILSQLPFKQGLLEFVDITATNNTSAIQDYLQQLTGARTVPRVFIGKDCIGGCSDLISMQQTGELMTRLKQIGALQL

glutaredoxin-1 (Grx1) [2] = molecular target: T2, glutaredoxin-1 (Grx1) (Homo sapiens, UniProt P35754); test: isolated enzyme spectrophotometric assay ([…] min pre-incubation, […] GSH); Kitz-Wilson kinetics; tandem MS of the Cys-22 adduct; type: biochemical
T2 construct: gene GLRX
T2 sequence (P35754 2-106): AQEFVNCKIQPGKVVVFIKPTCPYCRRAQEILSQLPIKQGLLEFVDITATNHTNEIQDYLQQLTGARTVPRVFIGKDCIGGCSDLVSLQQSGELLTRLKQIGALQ

Cys22 = Cys22 (UniProt position 23, FIKPTCPYCRR); settings: cited from earlier work

Compound	IC50 (glutaredoxin-1 (Grx1) [1]) [µM]	IC50 (glutaredoxin-1 (Grx1) [2]) [µM]	pKa (Cys22)
C#CCOc1cc(C(=O)NCc2ccc(NC(=O)CCl)cc2)cc(C(=O)OC)c1 [J02, methyl 3-((4-(2-chloroacetamido)benzyl)carbamoyl)-5-(prop-2-yn-1-yloxy) benzoate]	37	32	
Glutaredoxin-1 (Grx1, thioltransferase) (Homo sapiens (inferred; species of the isolated enzyme not stated explicitly))			3.5
